The text below walks through data of patent US20230331655A1, “HYDROXYN[…] AND METHODS OF USE THEREOF” (UNIVERSITY OF MARYLAND, BALTIMORE, priority 2020, published 2023).

The conditions of series [1]: i.p.; earlier study; cited from earlier work.
The test system of series [2] is mice. The conditions noted are these: i.p.; earlier study; cited from earlier work.
A short description of series [3]: pharmacokinetics in plasma and brain after intraperitoneal administration (UPLC-MS/MS). On the set-up: key to Brain Concentration over time, sex-dependent difference / Plasma Concentration over time, sex-dependent difference: F, female; M, male; NS, not statistically different. Type of series: in vivo, mouse. To be noted: for Kp / half-life / Tmax: CD-1, mouse, ip; for Kp: brain and plasma; for half-life: terminal half-life; for Brain Concentration over time, sex-dependent difference / Plasma Concentration over time, sex-dependent difference / Brain Total exposure (AUC), sex-dependent difference / Plasma Total exposure (AUC), sex-dependent difference: female vs male mice; for Brain Concentration over time, sex-dependent difference / Plasma Concentration over time, sex-dependent difference: ANOVA, Holm-Šídák post-hoc; for Brain Total exposure (AUC), sex-dependent difference / Plasma Total exposure (AUC), sex-dependent difference: t-test; for Tmax: earliest sampling time 10 min. Here is the method: Male and female CD-1 mice (Charles Rivers Laboratories, Raleigh, NC, USA), 8-11 weeks old at the time of testing, were habituated to the University of Maryland (Baltimore, MD, USA) animal facility for at least one week prior to testing. Mice were group housed 4-5 per cage with a constant 12-hour light cycle (lights on/off at 07:00/19:00). Food and water were available ad libitum. All experiments were performed during the light phase. All animal studies were approved by the University of Maryland School of Medicine Institutional Animal Care and Use Committee and conducted in accordance with the National Institutes of Health Guide for the Care and Use of Laboratory Animals.
(2R,6R)-HNK hydrochloride, (2S,6S)-HNK hydrochloride, (2R,6S)-HNK, (2S,6R)-HNK, (2R,5R)-HNK, (2S,5S)-HNK, (2R,5S)-HNK, (2S,5R)-HNK, (2R,4R)-HNK, (2S,4S)-HNK, (2R,4S)-HNK, and (2S,4R)-HNK hydrochloride were synthesized at the National Center for Advancing Translation Sciences (National Institutes of Health, Rockville, MD, USA) using methods previously described in Morris et al., Org Lett 17:4572-4575 (2017), which is incorporated by reference herein in its entirety. (5R)-methyl-(2R,6R)-HNK was obtained from Organix Inc. (Woburn, MA, USA) or from the National Center for Advancing Translational Sciences (Rockville, MD, USA); synthesis and characterization are described in the Supplemental Information. All compounds were dissolved in 20% (w/v) cyclodextrin (Sigma Aldrich, USA) in saline and administered intraperitoneally (i.p.) in a volume of 7.5 ml/kg.
At 10 min (0.167 h), 30 min (0.5 h), 1 h, 2 h, and 4 h post-treatment, mice were deeply anesthetized (3.5% isoflurane for approximately 2 min). Trunk blood was collected into 1.5-ml polypropylene tubes containing 30 μl of disodium EDTA (0.5 M, pH 8.0) and kept on ice until plasma collection (<30 min). Brains were then removed, flash-frozen in isopentane, and stored at −80° C. until analysis. Blood was centrifuged at 8000×g for 6 min at 4° C. to obtain plasma. Plasma was collected into clean microcentrifuge tubes and stored at −80° C. until analysis.
Ultra-performance liquid chromatography-tandem mass spectrometry (UPLC-MS/MS) methods were developed and optimized to determine the concentration of each HNK in mouse plasma and brain samples following systemic administration. Mass spectrometric analysis was performed on a Waters Xevo TQ-S triple quadrupole instrument using electrospray ionization in positive mode with the selected reaction monitoring. The separation of HNKs from endogenous components was performed on a Waters Acquity UPLC with 0.5 ml/min flow rate and gradient elution. The mobile phase A and B were 0.1% formic acid in water and 0.1% formic acid in acetonitrile, respectively. Plasma and brain concentrations of (2R,6R)-, (2S,6S)-, (2R,4S)-, and (2S,4R)-HNK were determined by hydrophilic interaction liquid chromatography-tandem mass spectrometry (HILIC UPLC-MS/MS) using a BEH amide column (1.7μ, 2.1×50 mm). Plasma and brain concentrations of (2R,6S)-, (2S,6R)-, (2R,5R)- (2S,5S)-, (2R,5S)-, (2S,5R)-, (2R,4R)-, and (2S,4S)-HNK; and (5R)-methyl-(2R,6R)-HNK were determined by reversed phase UPLC-MS/MS based upon a previously described protocol with several modifications using a BEH C18 column ([…], 2.1×50 mm). See Moaddel et al., Talanta 82:1892-1904 (2010), and Zanos et al., Nature 533:481-486 ([…]), both of which are incorporated by reference herein in their entireties.
The gradient for HILIC UPLC method was: 0-0.2 min 98% B; 0.2-1.4 min 98% to 35% B; 1.4-1.8 min 35% to 10% B, 1.9-2.4 min 98% B. The gradient for BEH Cis UPLC method was: 0-0.2 min 1% B; 0.2-1.4 min 1% to 35% B; 1.4-1.8 min 35% to 98% B, 1.8-2.2 min 98% B, 2.3 min 1% B. The analytical run time of the UPLC methods was 2.5 min. The calibration standards and quality control samples were prepared in blank mouse plasma and brain homogenate. Calibration standards ranged from 5.0-5000 ng/ml. […]

In series [4] the target is NMDARs. To be noted: read-out: Ki (binding / inhibition of NMDARs); cited from earlier work.
The nature of series [5]: oral bioavailability in mice. The conditions noted are these: mouse, in vivo.
The test system of series [6] is Male C57BL/6J mice. Nature of the series: naloxone-precipitated morphine withdrawal symptoms. The series is classed as in vivo, mouse. To be noted: 10 mg/kg i.p. 10 min before naloxone 1 mg/kg. From the text: Animals: Male C57BL/6J mice (8 weeks old, Jackson laboratories) were kept in a temperature and humidity-controlled environment and maintained in a 12:12 hr light/dark cycle (lights on at 7:00 AM). Mice were singly-housed for all the studies due to increased aggression following opioid administration and were randomly assigned to treatment groups.
Drugs: (2R,6R)-HNK hydrochloride was synthesized and characterized. Absolute and relative stereochemistry for (2R,6R)-HNK was confirmed by small molecule x-ray crystallography. For the intraperitoneal injections, drugs were dissolved in 0.9% saline and given in a volume of 5 ml/kg.
Precipitated morphine withdrawal symptoms: Mice were given a single injection of saline or morphine (10 mg/kg) in their home cages for 4 days. On Day 5, 1 hr and 50 min after their last saline or morphine injection, mice were given a single injection of saline or (2R,6R)-HNK (10 mg/kg) and 10 min later were given another injection of either saline or the opioid receptor antagonist naloxone (1 mg/kg, i.p.). The mice were immediately placed in plexiglass cylinders and their behaviors were monitored and live-scored for 25 min by an experimenter blind to any treatment conditions. Behaviors that were scored included: number of jumps (escape behavior), number of paw tremors, and occurrence (1 point) or not in each 5-min interval for the following symptoms: stereotypic sniffing, stereotypic rearing, eye ptosis, piloerection, head nodding and swallowing (FIGS. 9A-9H). An average score for each animal was given after analyzing all the withdrawal symptoms (FIG. 10).

Where [7] appears, read: female mice, i.p. 5 mg/kg, read-out: B:P ratio (brain to plasma AUC ratio).
Where [8] appears, read: brain, female mice, i.p. 5 mg/kg, read-out: t1/2 Brain (converted).
The mark [9] stands for this setting: brain, male mice, i.p. 5 mg/kg, read-out: t1/2 Brain (converted).
The mark [10] stands for this setting: plasma, male mice, i.p. 5 mg/kg, read-out: t1/2 Plasma (converted).
[11] abbreviates: male mice, equivalent systemic doses.
Where [12] appears, read: male mice, i.p. 5 mg/kg, read-out: B:P ratio (brain to plasma AUC ratio).
Where [13] appears, read: plasma, female mice, i.p. 5 mg/kg, read-out: t1/2 Plasma (converted).

Like-named read-outs stand apart in the source and are kept apart here.

For orientation: Tmax means the time from dosing to the highest level. In general, bioavailability refers to dose-corrected exposure relative to a reference, in per cent.

On to `N[C@]1(c2ccccc2Cl)CCC[C@H](O)C1=O` [(2S,6S)-HNK, (2S,6S)-hydroxynorketamine], for which the “lowest dose reducing escape failures in the learned helplessness test” value in series [1] is given as 75 mg/kg. Moreover, the “lowest dose reducing forced swim test immobility time” value in series [2] was 25 mg/kg. Also, the Kp in series [3] (setting [7]) is 1.2. In addition, in series [3] (setting [8]), the half-life was 42 min. For the same molecule, in series [3] (setting [9]), the half-life is 42 min. In addition, the half-life in series [3] (setting [10]) was 42 min. Further, in series [3] (i.p. 5 mg/kg), the “Brain Concentration over time, sex-dependent difference” value is on record as “F > M at 10, 30 min”; the “Plasma Concentration over time, sex-dependent difference” value was “main effect of sex, F > M”; the “Brain Total exposure (AUC), sex-dependent difference” value is listed as “F > M”; the “Plasma Total exposure (AUC), sex-dependent difference” value is “F > M”. Also, in series [3] (setting [11]), the “Cmax and AUC, fold greater than those of (2R,6R)-HNK” value is reported as 2-3 fold; the “peak and total brain levels, fold greater than those of (2R,6R)-HNK” value is 2-3 fold. Besides, the Ki in series [4] was 7.34 to 21.2 µM.

`N[C@]1(c2ccccc2Cl)CCC[C@@H](O)C1=O` [(2S,6R)-HNK]: the Kp in series [3] (setting [7]) worked out at 1.4. For the same molecule, the Kp in series [3] (setting [12]) turned out to be 1.2. In series [3] (setting [10]), the half-life was 42 min. For the same molecule, in series [3] (i.p. 5 mg/kg), the “Brain Concentration over time, sex-dependent difference” value is recorded as “main effect of sex, F > M”; the “Plasma Concentration over time, sex-dependent difference” value was “NS”; the “Brain Total exposure (AUC), sex-dependent difference” value is “F > M”; the “Plasma Total exposure (AUC), sex-dependent difference” value is on record as “F > M”. Further, in series [3] (male mice), the “peak and total brain levels, lower compared to equivalent dosing with (2R,6R)-HNK” value is “three-fold”.

Consider `N[C@@]1(c2ccccc2Cl)CCC[C@H](O)C1=O` [(2R,6S)-HNK], for which the Kp was 0.7 in series [3] (setting [7]) and 0.6 in series [3] (setting [12]). The half-life was 24 min in series [3] (setting [8]), 42 min in series [3] (setting [9]) and 54 min in series [3] (setting [10]). Besides, in series [3] (i.p. 5 mg/kg), the “Brain Concentration over time, sex-dependent difference” value was “NS”. Also, in series [3] (i.p. 5 mg/kg), the “Plasma Concentration over time, sex-dependent difference” value was “main effect of sex, M > F”. Besides, in series [3] (i.p. 5 mg/kg), the “Brain Total exposure (AUC), sex-dependent difference” value was “M > F”. For the same molecule, the “Plasma Total exposure (AUC), sex-dependent difference” value in series [3] (i.p. 5 mg/kg) is on record as “M > F”. Besides, the “brain concentration at 4 h post-treatment” value in series [3] (females, but not males, i.p. 5 mg/kg, LLOQ 5.0 ng/ml) was “below LLOQs”. Also, in series [3] (male mice), the “peak and total brain levels, lower compared to equivalent dosing with (2R,6R)-HNK” value is recorded as “two-fold”.

Take `C[C@@H]1CC[C@@](N)(c2ccccc2Cl)C(=O)[C@@H]1O.Cl` [(5R)-methyl-(2R,6R)-HNK, (2R,5R,6R)-2-amino-2-(2-chlorophenyl)-6-hydroxy-5-methylcyclohexan-1-one hydrochloride]: the Kp stood at 0.4 in series [3] (setting [7]); 0.4 in series [3] (setting [12]); 0.4 in series [3] (both sexes, male and female mice, i.p. 5 mg/kg, read-out: brain to plasma AUC (exposure) ratio). Also, the Tmax in series [3] (brain, both sexes, i.p. 5 mg/kg, read-out: Tmax in the brain (converted)) was 10 min; in series [3] (plasma, both sexes, i.p. 5 mg/kg, read-out: Tmax in the plasma (converted)), 10 min. The half-life in series [3] (setting [8]) is 42 min; in series [3] (setting [9]), 48 min; in series [3] (setting [13]), 48 min; in series [3] (setting [10]), 48 min. Further, the “Brain Concentration over time, sex-dependent difference” value in series [3] (i.p. 5 mg/kg) is “NS”. Also, the “Plasma Concentration over time, sex-dependent difference” value in series [3] (i.p. 5 mg/kg) is listed as “main effect of sex, M > F”. In series [3] (i.p. 5 mg/kg), the “Brain Total exposure (AUC), sex-dependent difference” value is given as “M > F”. In series [3] (i.p. 5 mg/kg), the “Plasma Total exposure (AUC), sex-dependent difference” value was “M > F”.

As to `N[C@@]1(c2ccccc2Cl)CCC[C@@H](O)C1=O` [(2R,6R)-HNK, (2R,6R)-hydroxynorketamine], the “lowest dose reducing escape failures in the learned helplessness test” value in series [1] is on record as 3 mg/kg. Besides, the bioavailability in series [5] is around 50%. The “lowest dose reducing forced swim test immobility time” value in series [2] was 5 mg/kg. The Kp in series [3] (setting [7]) was determined as 1.3. In series [3] (setting [12]), the Kp came out at 1.3. In series [3] (setting [8]), the half-life is 36 min. In addition, the half-life in series [3] (setting [9]) is 36 min. Further, the half-life in series [3] (setting [13]) is 36 min. The half-life in series [3] (setting [10]) is 36 min. Besides, in series [3] (i.p. 5 mg/kg), the “Brain Concentration over time, sex-dependent difference” value is reported as “F > M at 10, 30 min”; the “Plasma Concentration over time, sex-dependent difference” value is reported as “F > M at 10, 30 min”; the “Brain Total exposure (AUC), sex-dependent difference” value is on record as “F > M”; the “Plasma Total exposure (AUC), sex-dependent difference” value is “F > M”. Moreover, in series [6], the “average precipitated withdrawal symptoms of morphine” value was “overall reduction”, the escape-related jumping behavior result is “increasing the escape-related jumping behavior”, the paw tremors result is on record as “decreased paw tremors” and the “somatic symptoms following naloxone-precipitated morphine withdrawal” value is “decreases somatic symptoms”. In addition, the Ki in series [4] is above 100 µM.
